In one assay the test system is H292. As to the kind of experiment: Cell viability assay (CellTiter-Meiluncell Luminescent), tumor cell proliferation, H292. Conditions: Homo sapiens, NCI-H292, 96 h; for inhibition at 0.01 µM: read-out: Inhibition Rate at 10 nM (%); for inhibition at 0.5 µM: read-out: Inhibition Rate at 500 nM (%).
Another assay has as its target T1, WEE1 (Homo sapiens, UniProt P30291+Q96SW2).
T1 construct: effects of the compounds of the present disclosure on the expression of target proteins in cells; endogenous in cells; host or cells: human PBMCs (hPBMCs)
As to the kind of experiment: Western-blot assay, substrate protein degradation in hPBMCs: WEE1. The format is cell-based. Conditions: 24 hours of compound treatment, 50 nM and 500 nM.

Another assay has as its target T2, IKZF1 (Homo sapiens, UniProt Q13422+Q96SW2).
T2 construct: effects of the compounds of the present disclosure on the expression of target proteins in cells; endogenous in cells; host or cells: human PBMCs (hPBMCs)
As to the kind of experiment: Western-blot assay, substrate protein degradation in hPBMCs: IKZF1. The format is cell-based. Conditions: 24 hours of compound treatment, 50 nM and 500 nM.

A further assay addresses T3, IKZF2 (Homo sapiens, UniProt Q96SW2+Q9UKS7).
T3 construct: effects of the compounds of the present disclosure on the expression of target proteins in cells; endogenous in cells; host or cells: human PBMCs (hPBMCs)
As to the kind of experiment: Western-blot assay, substrate protein degradation in hPBMCs: IKZF2. Format: cell-based. The following applies: 24 hours of compound treatment, 50 nM and 500 nM.

In the next assay the target is T4, IKZF3 (Homo sapiens, UniProt Q96SW2+Q9UKT9).
T4 construct: effects of the compounds of the present disclosure on the expression of target proteins in cells; endogenous in cells; host or cells: human PBMCs (hPBMCs)
As to the kind of experiment: Western-blot assay, substrate protein degradation in hPBMCs: IKZF3. The following applies: 24 hours of compound treatment, 50 nM and 500 nM. The format is cell-based.

For another assay, the target named is T5, CK1α (Homo sapiens, UniProt P48729+Q96SW2).
T5 construct: effects of the compounds of the present disclosure on the expression of target proteins in cells; endogenous in cells; host or cells: human PBMCs (hPBMCs)
As to the kind of experiment: Western-blot assay, substrate protein degradation in hPBMCs: CK1α. Format: cell-based. Conditions: 24 hours of compound treatment, 50 nM and 500 nM.

The target of a further assay is T6, GSPT1 (Homo sapiens, UniProt P15170+Q96SW2).
T6 construct: effects of the compounds of the present disclosure on the expression of target proteins in cells; endogenous in cells; host or cells: human PBMCs (hPBMCs)
As to the kind of experiment: Western-blot assay, substrate protein degradation in hPBMCs: GSPT1. The format is cell-based. Conditions: 24 hours of compound treatment, 50 nM and 500 nM.

T3 sequence (Q9UKS7 whole entry): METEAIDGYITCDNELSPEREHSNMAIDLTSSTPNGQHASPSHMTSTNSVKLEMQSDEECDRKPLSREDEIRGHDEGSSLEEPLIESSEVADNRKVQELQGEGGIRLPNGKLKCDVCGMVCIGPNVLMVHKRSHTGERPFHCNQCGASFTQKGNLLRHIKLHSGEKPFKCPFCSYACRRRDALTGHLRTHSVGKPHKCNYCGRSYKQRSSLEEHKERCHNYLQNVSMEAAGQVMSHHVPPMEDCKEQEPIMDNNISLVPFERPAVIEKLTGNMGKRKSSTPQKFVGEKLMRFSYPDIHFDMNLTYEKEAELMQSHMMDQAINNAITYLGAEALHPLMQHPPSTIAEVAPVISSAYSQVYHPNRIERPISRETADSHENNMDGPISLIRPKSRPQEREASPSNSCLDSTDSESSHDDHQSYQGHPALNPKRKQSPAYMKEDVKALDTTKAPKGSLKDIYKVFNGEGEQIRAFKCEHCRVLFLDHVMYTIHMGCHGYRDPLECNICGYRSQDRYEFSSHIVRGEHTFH
T3 sequence (Q96SW2 whole entry): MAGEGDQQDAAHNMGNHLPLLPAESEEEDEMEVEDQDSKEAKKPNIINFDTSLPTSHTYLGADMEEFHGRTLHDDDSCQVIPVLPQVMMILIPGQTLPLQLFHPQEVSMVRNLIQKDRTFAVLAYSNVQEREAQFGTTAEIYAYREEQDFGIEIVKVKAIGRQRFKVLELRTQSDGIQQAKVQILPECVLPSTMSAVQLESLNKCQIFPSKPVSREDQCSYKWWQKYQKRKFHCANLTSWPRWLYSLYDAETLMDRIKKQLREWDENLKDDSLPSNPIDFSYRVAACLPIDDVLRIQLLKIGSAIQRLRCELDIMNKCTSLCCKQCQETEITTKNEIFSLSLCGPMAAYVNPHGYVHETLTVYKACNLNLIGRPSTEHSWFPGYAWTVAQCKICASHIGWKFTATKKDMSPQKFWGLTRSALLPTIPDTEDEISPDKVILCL
T3 sequence (Q16531 whole entry partner): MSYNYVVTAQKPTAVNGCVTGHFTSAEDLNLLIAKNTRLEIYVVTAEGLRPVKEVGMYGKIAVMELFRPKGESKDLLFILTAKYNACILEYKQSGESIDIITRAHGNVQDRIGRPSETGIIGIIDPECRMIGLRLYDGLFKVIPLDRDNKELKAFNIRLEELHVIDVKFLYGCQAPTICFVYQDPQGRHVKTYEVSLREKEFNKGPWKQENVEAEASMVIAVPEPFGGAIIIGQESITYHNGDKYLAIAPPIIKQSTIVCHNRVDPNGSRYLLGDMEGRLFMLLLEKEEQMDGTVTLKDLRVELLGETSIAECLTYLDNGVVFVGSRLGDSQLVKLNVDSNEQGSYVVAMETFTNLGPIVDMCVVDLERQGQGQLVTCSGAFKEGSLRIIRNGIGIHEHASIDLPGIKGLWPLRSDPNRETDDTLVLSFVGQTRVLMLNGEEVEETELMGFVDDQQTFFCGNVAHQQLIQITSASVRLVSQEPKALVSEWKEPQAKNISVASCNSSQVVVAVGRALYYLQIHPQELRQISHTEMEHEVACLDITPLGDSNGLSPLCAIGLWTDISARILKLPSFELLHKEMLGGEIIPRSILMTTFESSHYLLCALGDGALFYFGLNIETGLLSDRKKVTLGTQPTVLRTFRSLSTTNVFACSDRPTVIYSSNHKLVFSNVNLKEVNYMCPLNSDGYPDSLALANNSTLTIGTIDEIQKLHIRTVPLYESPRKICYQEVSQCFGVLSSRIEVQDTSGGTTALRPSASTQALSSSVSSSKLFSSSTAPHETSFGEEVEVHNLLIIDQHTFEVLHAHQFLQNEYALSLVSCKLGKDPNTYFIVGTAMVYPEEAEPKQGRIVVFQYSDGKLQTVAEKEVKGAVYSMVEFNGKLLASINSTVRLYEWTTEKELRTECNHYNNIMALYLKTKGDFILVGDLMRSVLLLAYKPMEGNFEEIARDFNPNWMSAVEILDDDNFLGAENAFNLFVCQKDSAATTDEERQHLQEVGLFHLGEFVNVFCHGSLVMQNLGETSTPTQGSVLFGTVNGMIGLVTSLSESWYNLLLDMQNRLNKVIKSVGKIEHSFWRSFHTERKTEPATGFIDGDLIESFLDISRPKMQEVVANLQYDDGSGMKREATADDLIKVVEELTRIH
T2 sequence (Q13422 whole entry): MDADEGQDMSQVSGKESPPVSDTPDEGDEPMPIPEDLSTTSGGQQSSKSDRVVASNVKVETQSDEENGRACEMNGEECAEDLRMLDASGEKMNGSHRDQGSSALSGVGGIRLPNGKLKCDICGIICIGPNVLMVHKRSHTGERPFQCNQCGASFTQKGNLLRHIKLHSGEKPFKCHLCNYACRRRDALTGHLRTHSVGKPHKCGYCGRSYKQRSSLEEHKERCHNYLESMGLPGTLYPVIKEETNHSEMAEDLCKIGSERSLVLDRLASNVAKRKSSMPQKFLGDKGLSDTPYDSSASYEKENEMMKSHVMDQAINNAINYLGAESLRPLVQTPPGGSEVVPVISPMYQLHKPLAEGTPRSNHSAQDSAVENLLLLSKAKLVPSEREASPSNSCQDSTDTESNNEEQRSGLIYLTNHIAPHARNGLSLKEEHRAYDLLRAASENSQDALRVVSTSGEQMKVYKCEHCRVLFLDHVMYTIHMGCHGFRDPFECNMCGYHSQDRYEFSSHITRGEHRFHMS
T2 sequence (Q96SW2 whole entry): as the sequence (Q96SW2 whole entry) above
T2 sequence (Q16531 whole entry partner): as the sequence (Q16531 whole entry partner) above
T5 sequence (P48729 whole entry): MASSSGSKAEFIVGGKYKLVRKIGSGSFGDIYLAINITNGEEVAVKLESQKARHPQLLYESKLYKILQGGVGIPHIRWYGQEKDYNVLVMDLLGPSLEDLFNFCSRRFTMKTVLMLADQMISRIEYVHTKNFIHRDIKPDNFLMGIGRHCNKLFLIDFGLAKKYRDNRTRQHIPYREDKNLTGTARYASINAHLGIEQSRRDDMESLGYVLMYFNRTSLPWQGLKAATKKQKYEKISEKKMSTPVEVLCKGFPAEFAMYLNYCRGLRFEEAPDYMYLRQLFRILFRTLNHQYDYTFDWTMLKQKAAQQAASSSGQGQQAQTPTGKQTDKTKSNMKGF
T5 sequence (Q96SW2 whole entry): as the sequence (Q96SW2 whole entry) above
T5 sequence (Q16531 whole entry partner): as the sequence (Q16531 whole entry partner) above
T6 sequence (P15170 whole entry): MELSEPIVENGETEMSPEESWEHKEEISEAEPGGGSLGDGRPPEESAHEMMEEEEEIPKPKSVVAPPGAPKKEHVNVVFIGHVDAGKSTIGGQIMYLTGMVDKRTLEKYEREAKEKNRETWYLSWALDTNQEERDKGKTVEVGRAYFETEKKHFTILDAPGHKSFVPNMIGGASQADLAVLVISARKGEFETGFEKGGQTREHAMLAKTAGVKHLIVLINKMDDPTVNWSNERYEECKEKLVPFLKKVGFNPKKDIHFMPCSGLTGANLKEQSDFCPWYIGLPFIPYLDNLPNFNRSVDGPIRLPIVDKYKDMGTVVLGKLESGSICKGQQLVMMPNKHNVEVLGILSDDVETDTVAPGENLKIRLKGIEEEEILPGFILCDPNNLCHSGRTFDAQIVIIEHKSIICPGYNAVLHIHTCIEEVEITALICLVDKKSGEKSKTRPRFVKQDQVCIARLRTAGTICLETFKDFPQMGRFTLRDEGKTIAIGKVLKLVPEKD
T6 sequence (Q96SW2 whole entry): as the sequence (Q96SW2 whole entry) above
T6 sequence (Q16531 whole entry partner): as the sequence (Q16531 whole entry partner) above
T1 sequence (P30291 whole entry): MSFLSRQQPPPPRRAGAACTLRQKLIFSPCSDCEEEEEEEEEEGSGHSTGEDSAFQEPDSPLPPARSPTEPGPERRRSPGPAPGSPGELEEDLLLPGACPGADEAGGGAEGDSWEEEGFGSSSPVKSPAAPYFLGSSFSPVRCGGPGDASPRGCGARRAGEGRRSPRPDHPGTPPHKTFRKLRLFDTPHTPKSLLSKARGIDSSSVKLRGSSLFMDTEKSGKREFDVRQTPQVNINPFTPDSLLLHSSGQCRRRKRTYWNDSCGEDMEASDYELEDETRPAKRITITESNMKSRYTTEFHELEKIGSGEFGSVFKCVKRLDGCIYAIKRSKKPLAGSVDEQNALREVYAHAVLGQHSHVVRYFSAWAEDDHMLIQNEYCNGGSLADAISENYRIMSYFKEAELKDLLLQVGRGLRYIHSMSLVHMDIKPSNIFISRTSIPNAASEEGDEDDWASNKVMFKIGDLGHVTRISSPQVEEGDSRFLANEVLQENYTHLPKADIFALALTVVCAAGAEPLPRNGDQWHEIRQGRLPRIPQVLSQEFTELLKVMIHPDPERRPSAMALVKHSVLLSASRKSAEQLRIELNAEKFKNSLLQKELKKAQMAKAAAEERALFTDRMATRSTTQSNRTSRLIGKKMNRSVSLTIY
T1 sequence (Q96SW2 whole entry): as the sequence (Q96SW2 whole entry) above
T1 sequence (Q16531 whole entry partner): as the sequence (Q16531 whole entry partner) above

Regarding `O=C1CCN(N2Cc3cc(CN4CC(n5cnc6cc(F)ccc65)C4)ccc3C2=O)C(=O)N1` [GT-07723, 1-(5-((3-(5-fluoro-1H-benzo[d]imidazol-1-yl)azetidin-1-yl)methyl)-1-oxoisoindolin-2-yl)dihydropyrimidine-2,4(1H,3H)-dione], in the assay with H292, the inhibition (usually how much of the control response was suppressed) at 0.01 µM lay within 15 to 20% and the inhibition at 0.5 µM was 5 to 10%.
For `Cc1nc(N2CCN(Cc3ccc4c(c3)C(=O)N(N3CCC(=O)NC3=O)C4=O)CC2)c2ccsc2n1` [GT-08100, 2-(2,4-dioxotetrahydropyrimidin-1(2H)-yl)-5-((4-(2-methylthieno[2,3-d]pyrimidin-4-yl)piperazin-1-yl)methyl)isoindoline-1,3-dione], in the assay with H292, the inhibition at 0.01 µM is 5 to 10% and the inhibition at 0.5 µM was in the range of 10 to 15%.
In the same order, the values of `CC1(C)[C@@H]2CC[C@]1(CS(=O)(=O)NCc1ccc3c(c1)CN(N1CCC(=O)NC1=O)C3=O)C(=O)C2` [GT-08133, 1-((1R,4R)-7,7-dimethyl-2-oxobicyclo[2.2.1]heptan-1-yl)-N-((2-(2,4-dioxotetrahydropyrimidin-1(2H)-yl)-1-oxoisoindolin-5-yl)methyl)methanesulfonamide] are 15 to 20% and 20 to 40%.
In the same order, the values of `O=C1CCN(N2C(=O)c3ccc(CN4CCC(c5ncnc6sc7c(c56)CCC7)CC4)cc3C2=O)C(=O)N1` [GT-08425, 5-((4-(6,7-dihydro-5H-cyclopenta[4,5]thieno[2,3-d]pyrimidin-4-yl)piperidin-1-yl)methyl)-2-(2,4-dioxotetrahydropyrimidin-1(2H)-yl)isoindoline-1,3-dione] are 15 to 20% and 5 to 10%.
For `Cc1nc(C2CCN(Cc3ccc4c(c3)C(=O)N(N3CCC(=O)NC3=O)C4=O)CC2)c2c3c(sc2n1)CCC3` [GT-08426, 2-(2,4-dioxotetrahydropyrimidin-1(2H)-yl)-5-((4-(2-methyl-6,7-dihydro-5H-cyclopenta[4,5]thieno[2,3-d]pyrimidin-4-yl)piperidin-1-yl)methyl)isoindoline-1,3-dione], in the assay with H292, the inhibition at 0.01 µM is 20 to 40% and the inhibition at 0.5 µM lay in the range of 20 to 40%.
On to `CC(C)c1cc2c(C3=CCN(Cc4ccc5c(c4)C(=O)N(N4CCC(=O)NC4=O)C5=O)CC3)ncnc2s1` [GT-08429, 2-(2,4-dioxotetrahydropyrimidin-1(2H)-yl)-5-((4-(6-isopropylthieno[2,3-d]pyrimidin-4-yl)-3,6-dihydropyridin-1(2H)-yl)methyl)isoindoline-1,3-dione], for which, in the assay on H292, the inhibition at 0.01 µM was in the range of 20 to 40% and the inhibition at 0.5 µM fell in the range of 20 to 40%.
As for `O=C1CCN(N2C(=O)c3ccc(CN4CCN(c5nc(N6CCOCC6)c6sccc6n5)CC4)cc3C2=O)C(=O)N1` [GT-08456, 2-(2,4-dioxotetrahydropyrimidin-1(2H)-yl)-5-((4-(4-morpholinothieno[3,2-d]pyrimidin-2-yl)piperazin-1-yl)methyl)isoindoline-1,3-dione], in the assay with H292, the inhibition at 0.01 µM lay in the range of 5 to 10% and the inhibition at 0.5 µM is 20 to 40%.
Turning to `O=C1CCN(N2Cc3cc(CN4CCN(c5nc(N6CCNCC6)c6sccc6n5)CC4)ccc3C2=O)C(=O)N1` [GT-08949, 1-(1-oxo-5-((4-(4-(piperazin-1-yl)thieno[3,2-d]pyrimidin-2-yl)piperazin-1-yl)methyl)isoindolin-2-yl)dihydropyrimidine-2,4(1H,3H)-dione], on WEE1, the “substrate protein remaining % WEE1” value was “B (80%< substrate protein remaining %≤ 100%)”. Besides, at IKZF1, the “substrate protein remaining % IKZF1” value is reported as “B (80%< substrate protein remaining %≤ 100%)”. Further, the “substrate protein remaining % IKZF2” value at IKZF2 is “B (80%< substrate protein remaining %≤ 100%)”. On IKZF3, the “substrate protein remaining % IKZF3” value is given as “B (80%< substrate protein remaining %≤ 100%)”. In addition, on CK1α, the “substrate protein remaining % CK1α” value is given as “B (80%< substrate protein remaining %≤ 100%)”. On GSPT1, the “substrate protein remaining % GSPT1” value is “A (0% ≤ substrate protein remaining % ≤ 80%)”.

The values are drawn from patent EP4722207A1, “OXOISOINDOLINYL-SUBSTITUTED TETRAHYDROPYRIMIDINEDIONE DERIVATIVE AND USE THEREOF” (Gluetacs Therapeutics (Shanghai) Co., Ltd., priority 2023, dated 2024).
